In patent publication US4314028A, “Fermentation process for producing tallysomycin compounds” (priority 1980, dated 1982):

Key:
[1] = system: Aspergillus fumigatus IAM 2593; test: MIC, two-fold agar dilution method; assay type: cell-based; conditions: Sabouraud agar
Procedure, shortened: (§1)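 The lowest concentration preventing growth is reported as the MIC. Testing used doubling agar dilutions. The medium was Sabouraud for Aspergillus and nutrient agar for the Staphylococcus, Sarcina and Mycobacterium strains.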

[2] = system: Bacillus subtilis PCI 219; test: MIC, two-fold agar dilution method; assay type: cell-based; conditions: nutrient agar
Procedure, shortened: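 Compounds are diluted two-fold through agar plates: Sabouraud medium for the fungus, nutrient medium for the bacterial strains, including the acid-fast Mycobacterium 607. Organisms are then applied and the minimum inhibitory concentration is recorded.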

[3] = system: Candida albicans IAM 4888; test: MIC, two-fold agar dilution method; assay type: cell-based; conditions: Sabouraud agar
Procedure, shortened: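 Agar dilution (2-fold series) on nutrient agar (bacteria) or Sabouraud agar (fungi).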

Escherichia coli NIHJ = test: MIC, two-fold agar dilution method; assay type: cell-based; conditions: nutrient agar
Procedure, shortened: (§2)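 Two-fold agar dilution; nutrient agar for bacteria, Sabouraud agar for A. fumigatus. MIC = lowest inhibitory concentration.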

Mycobacterium 607 = test: MIC, two-fold agar dilution method; assay type: cell-based; conditions: nutrient agar
Procedure, shortened: as §1

Proteus mirabilis A9554 = test: MIC, two-fold agar dilution method; assay type: cell-based; conditions: nutrient agar
Procedure, shortened: as §2

Sarcina lutea PCI1001 = test: MIC, two-fold agar dilution method; assay type: cell-based; conditions: nutrient agar
Procedure, shortened: as §1

[4] = system: Staphylococcus aureus Smith; test: MIC, two-fold agar dilution method; assay type: cell-based; conditions: nutrient agar
Procedure, shortened: as §1

[5] = system: Mycobacterium smegmatis strain M6-3; test: Relative antibacterial potency, paper-disc agar diffusion method; assay type: cell-based; conditions: relative to tallysomycin A standard=1000 mcg/mg
Protocol: The relative antibacterial potencies (tallysomycin A standard=1000 mcg/mg) of the tallysomycin derivatives were determined by the paper-disc agar diffusion method using Mycobacterium smegmatis strain M6-3 as the assay organism.

[6] = system: lysogenic bacterium E. coli W1709 (λ); test: Prophage induction of lysogenic bacterium (ILB activity); assay type: cell-based; conditions: t/c ratio of plaque counts greater than 3.0
Procedure, shortened: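 Plaques counted on agar plates containing test compound and on control plates, following Lein et al. A test/control plaque ratio above 3.0 counted as significant. Value given as the minimum inducible concentration.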

[7] = system: Lymphocytic leukemia P388; test: animal or person; assay type: in vivo, BDF1 mice; conditions: copper-chelated form unless otherwise stated; for Antitumor activity P388 (ED125): ip, once daily 9 days, dose giving T/C survival of 125%; for Antitumor therapeutic index P388: single dose LD50/ED125
Procedure, shortened: (§3)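 P388 (3×10^5 cells) and Lewis lung (5×10^5) i.p. in BDF1 mice, B16 (5×10^5) s.c. in BDF1, Sarcoma 180 ([…]) i.p. in male dd mice. ED125 (Sarcoma 180 ED150) from median-survival T/C, 45 days; B16 ID50 from day-16 tumor size.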

Sarcoma 180 = test: animal or person; assay type: in vivo, dd-strain mice; conditions: copper-chelated form unless otherwise stated; for Antitumor activity S180 (ED150): ip, once daily 9 days, effective dose 150, survival; for Antitumor therapeutic index S180: single dose LD50/ED150
Procedure, shortened: as §3

Melanotic melanoma B16 = test: Antitumor activity in mice, melanotic melanoma B16; assay type: in vivo, BDF1 mice; conditions: copper-chelated form unless otherwise stated; for Antitumor activity B16 (ID50): ip, once daily 9 days, 50% inhibition of tumor growth, day 16, 23040 min; for Antitumor therapeutic index B16: single dose LD50/ID50
Procedure, shortened: as §3

Lewis lung carcinoma = test: Antitumor activity in mice, Lewis lung carcinoma; assay type: in vivo, BDF1 mice; conditions: copper-chelated form unless otherwise stated; for Antitumor activity Lewis lung (ED125): ip, once daily 11 days, dose giving T/C survival of 125%; for Antitumor therapeutic index Lewis Lung: single dose LD50/ED125
From the text: The antitumor activity of the tallysomycin derivatives was examined in four experimental tumor systems in mice. Lymphocytic leukemia P388 and Lewis lung carcinoma were implanted intraperitoneally into BDF1 mice of either sex at an inoculum size of 3×10^5 and 5×10^5 cells per mouse, respectively. Sarcoma 180 ascites tumor was inoculated intraperitoneally into male dd-strain mice with […] per mouse. Melanotic melanoma B16 was implanted subcutaneously into BDF1 mice with 5×10^5 cells per mouse. Twenty-four hours after the implantation of tumor cells, graded doses of test compounds were administered to mice intraperitoneally in an injection volume of 0.2 ml. per 10 grams of body weight. Test compounds were given once daily for 9 days (qd 1→9 schedule) except for the mice inoculated with Lewis lung carcinoma which were treated for 11 days (qd 1→11). Death or survival of the treated and non-treated (control) animals was recorded daily during the observation period of 45 days after the implantation of tumor cells, and the median survival time was calculated for each of the test (T) and control (C) groups. […] The actual dose giving a T/C of 125% was estimated by linear regression analysis and defined as the effective dose 125 or ED125. The effective dose 150 (ED150) was employed for the evaluation of antitumor effect against Sarcoma 180. In the B16 melanoma experiment the tumor size was measured on day 16 after tumor inoculation, and the dose giving 50% inhibition of tumor growth (ID50) was calculated from regression lines.
The antitumor therapeutic index was calculated for each derivative from the ratio of toxicity and antitumor activity.

[8] = Acute toxicity, single dose LD50; assay type: in vivo, dd mice; conditions: ip, 30 days observation, copper-chelated form unless otherwise stated
Protocol: Graded doses of test compounds were administered intraperitoneally to groups of dd mice. The injection was given one time only or once daily for 9 consecutive days. Death or survival of the animals was recorded for 30 days after the last dose of test compound to calculate the single or multiple median lethal dose (LD50).

Compound	minimum inhibitory concentration (MIC) [1]	minimum inhibitory concentration (MIC) [2]	minimum inhibitory concentration (MIC) [3]	minimum inhibitory concentration (MIC) (Escherichia coli NIHJ)	minimum inhibitory concentration (MIC) (Mycobacterium 607)	minimum inhibitory concentration (MIC) (Proteus mirabilis A9554)	minimum inhibitory concentration (MIC) (Sarcina lutea PCI1001)	minimum inhibitory concentration (MIC) [4]	Antibacterial potency [5] [μ/mg]	ILB activity (minimum inducible concentration) [6] [µg/mL]	Antitumor activity P388 (ED125) [7] [mg/kg/day]	Antitumor therapeutic index P388 [7]	Antitumor activity S180 (ED150) (Sarcoma 180) [mg/kg/day]	Antitumor therapeutic index S180 (Sarcoma 180)	Antitumor activity B16 (ID50) (Melanotic melanoma B16) [mg/kg/day]	Antitumor therapeutic index B16 (Melanotic melanoma B16)	Antitumor activity Lewis lung (ED125) (Lewis lung carcinoma) [mg/kg/day]	Antitumor therapeutic index Lewis Lung (Lewis lung carcinoma)	LD50 single dose [8] [mg/kg/day]
Cc1c(N)nc(C(CC(N)=O)NCC(N)C(N)=O)nc1C(=O)NC(C(=O)NC(C)C(O)CC(=O)NC(C(=O)NC(OC1OC(C)C(N)C(O)C1O)C(O)c1nc(-c2nc(C(=O)NCCN)cs2)cs1)C(C)O)C(OC1OC(CO)C(O)C(O)C1OC1OC(CO)C(O)C(OC(N)=O)C1O)c1c[nH]cn1 (centres unmarked) [Tallysomycin S3b]	0.8	0.013	12.5	0.1	0.05	0.2	1.6	0.8	725	0.31	0.32	59	0.06	317	0.20	95	0.26	73	19
Cc1c(N)nc(C(CC(N)=O)NCC(N)C(N)=O)nc1C(=O)NC(C(=O)NC(C)C(O)CC(=O)NC(C(=O)NC(OC1OC(C)C(N)C(O)C1O)C(O)c1nc(-c2nc(C(=O)NCCCC(N)CC(=O)NCCCNCCO)cs2)cs1)C(C)O)C(OC1OC(CO)C(O)C(O)C1OC1OC(CO)C(O)C(OC(N)=O)C1O)c1c[nH]cn1 (centres unmarked) [Tallysomycin S6a]	0.2	0.03	6.3	0.4	0.4	1.6	1.6	0.8	460	0.02	0.70	21	0.09	167	0.12	125	0.47	32	15
Cc1c(N)nc(C(CC(N)=O)NCC(N)C(N)=O)nc1C(=O)NC(C(=O)NC(C)C(O)CC(=O)NC(C(=O)NC(OC1OC(C)C(N)C(O)C1O)C(O)c1nc(-c2nc(C(=O)NCCCNCCO)cs2)cs1)C(C)O)C(OC1OC(CO)C(O)C(O)C1OC1OC(CO)C(O)C(OC(N)=O)C1O)c1c[nH]cn1 (centres unmarked) [Tallysomycin S6b]	0.8	0.02	25	0.4	0.2	3.1	12.5	6.3	340	0.08	2.2	14	0.08	375	0.22	136	0.17	176	30
Cc1c(N)nc(C(CC(N)=O)NCC(N)C(N)=O)nc1C(=O)NC(C(=O)NC(C)C(O)CC(=O)NC(C(=O)NC(OC1OC(C)C(N)C(O)C1O)C(O)c1nc(-c2nc(C(=O)NCCCN(CCO)CCO)cs2)cs1)C(C)O)C(OC1OC(CO)C(O)C(O)C1OC1OC(CO)C(O)C(OC(N)=O)C1O)c1c[nH]cn1 (centres unmarked) [Tallysomycin S8b]	1.6	0.013	> 50	0.2	0.1	0.8	0.8	0.4	370	0.02	1.5	20	0.25	120	0.26	115	0.12	250	30
Cc1c(N)nc(C(CC(N)=O)NCC(N)C(N)=O)nc1C(=O)NC(C(=O)NC(C)C(O)CC(=O)NC(C(=O)NC(OC1OC(C)C(N)C(O)C1O)C(O)c1nc(-c2nc(C(=O)NCCNCCO)cs2)cs1)C(C)O)C(OC1OC(CO)C(O)C(O)C1OC1OC(CO)C(O)C(OC(N)=O)C1O)c1c[nH]cn1 (centres unmarked) [Tallysomycin S9b]	1.6	0.013	25	0.1	0.1	0.8	0.8	0.4	380	0.16	> 3.0	< 11	0.42	76	0.29	110	0.41	78	32
